Patent publication US20250313572A1, “MACROCYCLIC MCL-1 INHIBITORS AND METHODS OF USE” (AbbVie Inc., priority 2017, published 2025)
pKi: −log10 of the molar value. Read-outs that look alike come from different tables or passages of the source.

Legend:
[1] = tested on: NCI-H929 human multiple myeloma tumor cell line; assay: NCI-H929 cell viability assay (CellTiter-Glo, 24 hours); format: cell-based; conditions: Homo sapiens, NCI-H929, 24 h, read-out: H929 Viability IC50 (μM, 10% FBS), 10% FBS, 24 hours of compound treatment
Procedure: Each concentration was tested in duplicate at least 3 independent times. A luminescent signal proportional to the number of viable cells following 24 hours of compound treatment was determined using the CellTiter-Glo® Luminescent Cell Viability Assay according to the manufacturer's recommendations (Promega Corp., Madison, WI). The plates were read in a Perkin Elmer Envision using a Luminescence protocol. To generate dose response curves the data is normalized to percent viability by setting the averages of the staurosporine (10 μM) and DMSO only control wells to 0% and 100% viability respectively.

[2] = tested on: AMO-1 human multiple myeloma tumor cell line; assay: AMO-1 cell viability assay (CellTiter-Glo, 24 hours); format: cell-based; conditions: Homo sapiens, AMO1, 24 h, read-out: AMO-1 Viability IC50 (μM, 10% FBS), 10% FBS, 24 hours of compound treatment
GST-MCL-1 = GST-MCL-1 (Homo sapiens, UniProt Q07820); assay: TR-FRET MCL-1 binding assay (competition with probe F-Bak); conditions: for Ki: MCL-1 Binding Ki (nM, 10% HS), in the presence of 10% HS (human serum); for pKi: without HS, read-out: MCL-1 Binding Ki
Procedure: Tb-anti-GST antibody was purchased from Invitrogen (Catalog No. PV4216).
For the assay, an acoustic dispenser was used to prepare dilution series from 10 mM test compounds in 100% DMSO and directly transfer 160 nL into low volume 384-well assay plates. 8 μL of a protein/probe/antibody mix was then added to each well resulting in final concentrations listed below: • Test compound: 11 three-fold dilutions beginning at 25 μM
The samples were then mixed on a shaker for 1 minute and incubated for an additional 2 hours at room temperature. For each assay plate, a probe/antibody and protein/antibody/probe mixture were included as a negative and a positive control, respectively. Fluorescence was measured on the Envision (Perkin Elmer) using a 340/35 nm excitation filter and 520/525 (F-Bak) and 495/510 nm (Tb-labeled anti-his antibody) emission filters. […] The TR-FRET assay can be performed in the presence of varying concentrations of human serum (HS) or fetal bovine serum (FBS). Compounds were tested both without HS and in the presence of 10% HS.

Sequence of GST-MCL-1 (Q07820 whole entry): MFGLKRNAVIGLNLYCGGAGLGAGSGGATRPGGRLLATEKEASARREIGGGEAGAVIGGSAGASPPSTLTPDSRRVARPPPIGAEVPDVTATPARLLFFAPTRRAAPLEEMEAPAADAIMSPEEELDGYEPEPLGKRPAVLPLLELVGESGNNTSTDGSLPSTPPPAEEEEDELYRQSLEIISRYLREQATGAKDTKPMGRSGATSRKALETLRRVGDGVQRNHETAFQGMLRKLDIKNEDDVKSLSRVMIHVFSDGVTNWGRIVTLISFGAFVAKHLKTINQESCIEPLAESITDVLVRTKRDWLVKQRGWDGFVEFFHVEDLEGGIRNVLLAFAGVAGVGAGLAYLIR

SMILES | IC50 [1] [µM] | IC50 [2] [µM] | Ki (GST-MCL-1) [nM] | pKi (GST-MCL-1)
COCCOCCOCCOCCOCCOC[C@H]1CN(c2nccc(COc3ccc4cc3C[C@H](C(=O)O)Oc3ncnc5sc(-c6ccc(F)cc6)c(c35)-c3c(C)c(Cl)c(c(Cl)c3C)O[C@H](CN3CCN(C)CC3)CO4)n2)CCO1 [Example 83, (7R,16R)-19,23-dichloro-1-(4-fluorophenyl)-10-({2-[(2R)-2-(2,5,8,11,14,17-hexaoxaoctadecan-1-yl)morpholin-4-yl]pyrimidin-4-yl}methoxy)-20,22-dimethyl-16-[(4-methylpiperazin-1-yl)methyl]-7,8,15,16-tetrahydro-18,21-etheno-13,9-(metheno)-6,14,17-trioxa-2-thia-3,5-diazacyclononadeca[1,2,3-cd]indene-7-carboxylic Acid] | 0.0026 |  |  | 
Cc1c(Cl)c2c(Cl)c(C)c1-c1c(-c3ccc(F)cc3)sc3ncnc(c13)O[C@@H](C(=O)O)Cc1cc(ccc1OCc1ccnc([C@H]3CC[C@H](OCCOCC4COCCO4)CC3)n1)OC[C@@H](CN1CCN(C)CC1)O2 (stereo partly drawn) [Example 92, (7R,16R)-19,23-dichloro-10-({2-[(1r,4r)-4-{2-[(1,4-dioxan-2-yl)methoxy]ethoxy}cyclohexyl]pyrimidin-4-yl}methoxy)-1-(4-fluorophenyl)-20,22-dimethyl-16-[(4-methylpiperazin-1-yl)methyl]-7,8,15,16-tetrahydro-18,21-etheno-13,9-(metheno)-6,14,17-trioxa-2-thia-3,5-diazacyclononadeca[1,2,3-cd]indene-7-carboxylic Acid] | 0.00031 | 0.000223 |  | 
Cc1c(Cl)c2c(Cl)c(C)c1-c1c(-c3ccc(F)cc3)sc3ncnc(c13)O[C@@H](C(=O)O)Cc1cc(ccc1OCc1ccnc(-c3ccc(OCCN4CCOCC4)cc3)n1)OC[C@@H](CN1CCN(C)CC1)O2 [Example 168, (7R,16R)-19,23-dichloro-1-(4-fluorophenyl)-20,22-dimethyl-16-[(4-methylpiperazin-1-yl)methyl]-10-[(2-{4-[2-(morpholin-4-yl)ethoxy]phenyl}pyrimidin-4-yl)methoxy]-7,8,15,16-tetrahydro-18,21-etheno-13,9-(metheno)-6,14,17-trioxa-2-thia-3,5-diazacyclononadeca[1,2,3-cd]indene-7-carboxylic Acid] |  |  | 0.671 | 10.60
Cc1c(Cl)c2c(Cl)c(C)c1-c1c(-c3ccc(F)cc3)sc3ncnc(c13)O[C@@H](C(=O)O)Cc1cc(ccc1OCc1ccnc(-c3ccc(OC[C@@H]4CN(C)CCCO4)cc3)n1)OC[C@@H](CN1CCN(C)CC1)O2 [Example 173, (7R,16R)-19,23-dichloro-1-(4-fluorophenyl)-20,22-dimethyl-10-{[2-(4-{[(2S)-4-methyl-1,4-oxazepan-2-yl]methoxy}phenyl)pyrimidin-4-yl]methoxy}-16-[(4-methylpiperazin-1-yl)methyl]-7,8,15,16-tetrahydro-18,21-etheno-13,9-(metheno)-6,14,17-trioxa-2-thia-3,5-diazacyclononadeca[1,2,3-cd]indene-7-carboxylic Acid] | 0.00452 | 0.00114 |  | 
Cc1c(Cl)c2c(Cl)c(C)c1-c1c(-c3ccc(F)cc3)sc3ncnc(c13)O[C@@H](C(=O)O)Cc1cc(ccc1OCc1ccnc(-c3ccc(O[C@H]4CO[C@H]5[C@@H]4OC[C@@H]5O)cc3)n1)OC[C@@H](CN1CCN(C)CC1)O2 [Example 174, (7R,16R)-19,23-dichloro-1-(4-fluorophenyl)-10-{[2-(4-{[(3S,3aR,6S,6aR)-6-hydroxyhexahydrofuro[3,2-b]furan-3-yl]oxy}phenyl)pyrimidin-4-yl]methoxy}-20,22-dimethyl-16-[(4-methylpiperazin-1-yl)methyl]-7,8,15,16-tetrahydro-18,21-etheno-13,9-(metheno)-6,14,17-trioxa-2-thia-3,5-diazacyclononadeca[1,2,3-cd]indene-7-carboxylic Acid] |  |  | 0.2 | 11.10
